Like-named read-outs stand apart in the source and are kept apart here.
Experiments:
RSV A2 = test: RSV NHBE EC50 (RSV A2 antiviral assay in normal human bronchial epithelial cells); type: cell-based; conditions: read-out: RSV NHBE EC50
Description: Normal human bronchial epithelial (NHBE) cells were purchased from Lonza (Walkersville, MD, Cat #CC-2540) and cultured in Bronchial Epithelial Growth Media (BEGM) (Lonza, Walkersville, MD, Cat #CC-3170). The cells were passaged 1-2 times per week to maintain <80% confluency. The NHBE cells were discarded after 6 passages in culture.
To conduct the RSV A2 antiviral assay, NHBE cells were plated in 96-well plates at a density of 7,500 cells per well in BEGM and allowed to attach overnight at 37° C. Following attachment, 100 μL of cell culture media was removed and 3-fold serially diluted compound was added using a Hewlett-Packard D300 Digital Dispenser. The final concentration of DMSO was normalized to 0.05%. Following compound addition, the NHBE cells were infected by the addition of 100 μL of RSV A2 at a titer of 1×10^4.5 tissue culture infectious doses/mL in BEGM and then incubated at 37° C. for 4 days. […] The mixtures were incubated for 10 minutes at 25° C., and the luminescence signal was quantified on an Envision luminescence plate reader.

RSV strain A2 = test: RSV HEp-2 EC50 (infectious cytopathic cell protection assay); type: cell-based; conditions: read-out: RSV HEp-2 EC50
Description: Antiviral activity against RSV is determined using an infectious cytopathic cell protection assay in HEp-2 cells. In this assay, compounds inhibiting viral infection and/or replication produce a cytoprotective effect against the virus-induced cell killing that can be quantified using a cell viability reagent. The techniques used here are novel adaptations of methods described in published literature (Chapman et al., Antimicrob Agents Chemother. 2007, 51(9):3346-53.)
HEp-2 cells are obtained from ATCC (Manassas, VI) and maintained in MEM media supplemented with 10% fetal bovine serum and penicillin/streptomycin. Cells are passaged twice a week and kept at subconfluent stage. Commercial stock of RSV strain A2 (Advanced Biotechnologies, Columbia, MD) is titered before compound testing to determine the appropriate dilution of the virus stock that generates desirable cytopathic effect in HEp-2 cells.
For antiviral tests, HEp-2 cells are grown in large cell culture flasks to near confluency but not fully so. The compounds to be tested are prediluted in DMSO in 384-well compound dilution plates, either in an 8 or 40 sample per plate standardized dose response format. 3-fold serial dilution increments of each test compound are prepared in the plates and test samples are transferred via acoustic transfer apparatus (Echo, Labcyte) at 100 nL per well into cell culture assay 384-well plates. Each compound dilution is transferred in single or quadruplicate samples into dry assay plates, which are stored until assay is ready to go. The positive and negative controls are laid out in opposite on ends of the plate in vertical blocks (1 column).
Subsequently, an infectious mixture is prepared using an appropriate dilution of virus stock previously determined by titration with cells at a density of 50,000/ml and 20 µL/well is added to test plates w/compounds via automation (uFlow, Biotek). Each plate includes negative and positive controls (16 replicates each) to create 0% and 100% virus inhibition standards, respectively. Following the infection with RSV, testing plates are incubated for 4 days in a 37° C. cell culture incubator. After the incubation, a cell viability reagent, Cell TiterGlo (Promega, Madison, WI) is added to the assay plates, which are incubated briefly, and a luminescent readout is measured (Envision, Perkin Elmer) in all the assay plates. The RSV-induced cytopathic effect, percentage inhibition, is determined from the levels of remaining cell viability. […] Various potent anti-RSV tool compounds are used as positive controls for antiviral activity.

[1] = human respiratory syncytial virus, NHBE, 96 h, NHBE cells, RSV A2, 4 days
[2] = human respiratory syncytial virus, HEp-2, 96 h, HEp-2 cells, RSV A2, 4 days
[3] = human respiratory syncytial virus, NHBE, 96 h
[4] = human respiratory syncytial virus, 96 h, HEp-2 cells, RSV A2, 4 days
[5] = human respiratory syncytial virus, 96 h, NHBE cells, RSV A2, 4 days

Structure (SMILES) | EC50 (RSV strain A2; [2]) [nM] | EC50 (RSV strain A2; HEp-2 cells, RSV A2, 4 days) [nM] | EC50 (RSV A2; NHBE cells, RSV A2, 4 days) [nM] | also measured
COCCCOC(=O)[C@H](C)NP(=O)(OC[C@@]1(C#N)O[C@@H](c2ccc3c(N)ncnn23)[C@H](O)[C@@H]1O)Oc1ccccc1 (mixture of isomers) [Example 58, 3-Methoxypropyl ((((2R,3S,4R,5S)-5-(4-aminopyrrolo[2,1-f][1,2,4]triazin-7-yl)-2-cyano-3,4-dihydroxytetrahydrofuran-2-yl)methoxy)(phenoxy)phosphoryl)-L-alaninate] |  |  |  | EC50 (RSV A2; [1]): 917 nM
C[C@H](NP(=O)(OC[C@@]1(C#N)O[C@@H](c2ccc3c(N)ncnn23)[C@H](O)[C@@H]1O)Oc1ccccc1)C(=O)O[C@H]1CCOC1 (mixture of isomers) [Example 64, (S)-Tetrahydrofuran-3-yl ((((2R,3S,4R,5S)-5-(4-aminopyrrolo[2,1-f][1,2,4]triazin-7-yl)-2-cyano-3,4-dihydroxytetrahydrofuran-2-yl)methoxy)(phenoxy)phosphoryl)-L-alaninate] | 350 |  |  | EC50 (RSV A2; [1]): 3500 nM
CCC(CC)COC(=O)[C@H](CC(C)C)NP(=O)(OC[C@@]1(C#N)O[C@@H](c2ccc3c(N)ncnn23)[C@H](O)[C@@H]1O)Oc1ccccc1 (mixture of isomers) [Example 127, (2S)-2-ethylbutyl 2-(((((2R,3S,4R,5S)-5-(4-aminopyrrolo[2,1-f][1,2,4]triazin-7-yl)-2-cyano-3,4-dihydroxytetrahydrofuran-2-yl)methoxy)(phenoxy)phosphoryl)amino)-4-methylpentanoate] | 1730 |  |  | EC50 (RSV A2; [1]): 434 nM
CC(C)(C)C(=O)OCCNP(=O)(OCC1(C#N)OC(c2ccc3c(N)ncnn23)C(O)C1O)Oc1ccccc1 (single isomer, unassigned) [Example 13] |  | 93 | 30 | 
C[C@H](N[P@@](=O)(OC[C@@]1(C#N)O[C@@H](c2ccc3c(N)ncnn23)[C@H](O)[C@@H]1O)Oc1ccccc1)C(=O)O[C@H]1CC[C@H](C(C)(C)C)CC1 (single isomer, unassigned) [Example 23] | 207 |  |  | EC50 (RSV A2; [1]): 34 nM
COC(=O)[C@H](C)NP(=O)(OC[C@@]1(C#N)O[C@@H](c2ccc3c(N)ncnn23)[C@H](O)[C@@H]1O)Oc1ccc(C[C@H](N)C(=O)OC)cc1 (single isomer, unassigned) [Example 63] |  | 4070 | > 5000 | 
CCOCCOCCOC(=O)[C@H](C)NP(=O)(OC[C@@]1(C#N)O[C@@H](c2ccc3c(N)ncnn23)[C@H](O)[C@@H]1O)Oc1ccccc1 (single isomer, unassigned) [Example 75] | 1260 |  |  | 
CCC(CC)COC(=O)[C@@H](C)NP(=O)(OC[C@@]1(C#N)O[C@@H](c2ccc3c(N)ncnn23)[C@H](O)[C@@H]1O)Oc1ccccc1 (single isomer, unassigned) [Example 83] |  | 5300 | 953 | 
CC[C@H](NP(=O)(OC[C@@]1(C#N)O[C@@H](c2ccc3c(N)ncnn23)[C@H](O)[C@@H]1O)Oc1ccccc1)C(=O)OC1CCCC1 (single isomer, unassigned) [Example 110] |  | 281 | 339 | 
CCC(CC)COC(=O)[C@H](CC(C)C)NP(=O)(OC[C@@]1(C#N)O[C@@H](c2ccc3c(N)ncnn23)[C@H](O)[C@@H]1O)Oc1ccccc1 (single isomer, unassigned) [Example 128] |  | 1870 | 164 | 
C[C@H](NP(=O)(OC[C@@]1(C#N)O[C@@H](c2ccc3c(N)ncnn23)[C@H](O)[C@@H]1O)Oc1ccccc1)C(=O)O[C@H]1CC[C@@H](C(F)(F)F)CC1 (single isomer, unassigned) [Example 179] |  | 591 | > 4800 | 
C[C@H](NP(=O)(OC[C@@]1(C#N)O[C@@H](c2ccc3c(N)ncnn23)[C@H](O)[C@@H]1O)Oc1ccccc1)C(=O)OCC(C)(C)C(F)(F)F (single isomer, unassigned) [Example 261] | 34 |  |  | 
CCOC(=O)[C@H](C)NP(=O)(OC[C@@]1(C#N)O[C@@H](c2ccc3c(N)ncnn23)[C@H](O)[C@@H]1O)Oc1ccc(C(C)(C)C)cc1 (single isomer, unassigned) [Example 264] |  | 41 |  | 
COC(=O)[C@H](C)NP(=S)(OC[C@@]1(C#N)O[C@@H](c2ccc3c(N)ncnn23)[C@H](O)[C@@H]1O)Oc1ccccc1 (stereo partly drawn) [Example 71, methyl ((((2R,3S,4R,5S)-5-(4-aminopyrrolo[2,1-f][1,2,4]triazin-7-yl)-2-cyano-3,4-dihydroxytetrahydrofuran-2-yl)methoxy)(phenoxy)phosphorothioyl)-L-alaninate] |  |  |  | EC50 (RSV strain A2; human respiratory syncytial virus, HEp-2, 96 h): 3140 nM; EC50 (RSV A2; [3]): > 5000 nM
C[C@H](N[P@@](=O)(OC[C@@]1(C#N)O[C@@H](c2ccc3c(N)ncnn23)[C@H](O)[C@@H]1O)Oc1ccccc1)C(=O)OCC(C)(C)C [Example 93] |  | 2840 | 85 | 
C[C@H](NP(=O)(OC[C@@]1(C#N)O[C@@H](c2ccc3c(N)ncnn23)[C@H](O)[C@@H]1O)Oc1ccccc1)C(=O)NC1CCCCC1 (stereo partly drawn) [Example 138, ((2R,3S,4R,5S)-5-(4-aminopyrrolo[2,1-f][1,2,4]triazin-7-yl)-2-cyano-3,4-dihydroxytetrahydrofuran-2-yl)methyl phenyl ((S)-1-(cyclohexylamino)-1-oxopropan-2-yl)phosphoramidate] | 38500 |  |  | EC50 (RSV A2; [1]): > 5000 nM
CC1CCC(OC(=O)C(C)NP(=O)(OCC2(C#N)OC(c3ccc4c(N)ncnn34)C(O)C2O)Oc2ccccc2)CC1 (stereo not shown) [Example 144] |  | 614 | 65 | 
CC[C@H](NP(=O)(OC[C@@]1(C#N)O[C@@H](c2ccc3c(N)ncnn23)[C@H](O)[C@@H]1O)Oc1ccccc1)C(=O)OCC(C)(C)C (stereo partly drawn) [Example 157, neopentyl (2S)-2-(((((2R,3S,4R,5S)-5-(4-aminopyrrolo[2,1-f][1,2,4]triazin-7-yl)-2-cyano-3,4-dihydroxytetrahydrofuran-2-yl)methoxy)(phenoxy)phosphoryl)amino)butanoate] | 972 |  |  | EC50 (RSV A2; [1]): 163 nM
CCC(CC)COC(=O)[C@H](C)NP1(=O)OC[C@@]2(C#N)O[C@@H](c3ccc4c(N)ncnn34)[C@H](O)[C@@H]2O1 (stereo partly drawn) [Example 169, 2-ethylbutyl ((4aR,6S,7S,7aS)-6-(4-aminopyrrolo[2,1-f][1,2,4]triazin-7-yl)-4a-cyano-7-hydroxy-2-oxidotetrahydro-4H-furo[3,2-d][1,3,2]dioxaphosphinin-2-yl)-L-alaninate] |  |  |  | EC50 (RSV strain A2; [4]): 524 nM; EC50 (RSV A2; [5]): 965 nM
C[C@H](NP(=O)(O)OC[C@@]1(C#N)O[C@@H](c2ccc3c(N)ncnn23)[C@H](O)[C@@H]1O)C(=O)OC1CCCCC1 [Example 202, cyclohexyl ((((2R,3S,4R,5S)-5-(4-aminopyrrolo[2,1-f][1,2,4]triazin-7-yl)-2-cyano-3,4-dihydroxytetrahydrofuran-2-yl)methoxy)(hydroxy)phosphoryl)-L-alaninate] |  |  |  | EC50 (RSV strain A2; [4]): 7050 nM; EC50 (RSV A2; [5]): > 2950 nM
CCOC(=O)c1ccccc1OP1(=O)OC[C@@]2(C#N)O[C@@H](c3ccc4c(N)ncnn34)[C@H](O)[C@@H]2O1 (stereo partly drawn) [Example 224, ethyl 2-(((4aR,6S,7S,7aS)-6-(4-aminopyrrolo[2,1-f][1,2,4]triazin-7-yl)-4a-cyano-7-hydroxy-2-oxidotetrahydro-4H-furo[3,2-d][1,3,2]dioxaphosphinin-2-yl)oxy)benzoate] |  |  |  | EC50 (RSV A2; [3]): 2830 nM
